Assay results: PubChem BioAssay AID1996
Values after ≈ are worked out from the molar mass of the structure shown.

Settings: buffer; pH 7.4; 200.0 µM

Row | Compound | solubility kinetic
1 | CC(C)c1ccc([N+](=O)[O-])cc1S(=O)(=O)N1CCN(C)CC1 | > 49.1 µg/mL
2 | COc1ccc(/C=N/NC(=O)c2ccc3nc[nH]c3c2)cc1 | > 44.1 µg/mL
3 | O=C(Nc1ccc(S(=O)(=O)NC2=NCCCCC2)cc1)c1cccc(S(=O)(=O)N2CCOCC2)c1 | 51.5 µg/mL (≈ 98.9 µM)
4 | COCCNC(=O)COCc1cc(-c2ccc3c(c2)OCO3)on1 | > 50.1 µg/mL
5 | Cc1[nH]c2ccccc2c1C(c1ccccn1)N1CCCC1 (configuration not stated) | 39.9 µg/mL (≈ 137 µM)
6 | CCOC(=O)CSc1nc2c(c(=O)[nH]1)C(C)(CC)Cc1ccccc1-2 (configuration not stated) | 1.5 µg/mL (≈ 4.18 µM)
7 | Cc1ccc(NC(=S)NC(=O)c2cccs2)cc1F | 1.6 µg/mL (≈ 5.44 µM)
8 | COc1ccc(NC(=O)CN2CCN(c3ccccc3C)CC2)cc1 | 35.5 µg/mL (≈ 105 µM)
9 | Cc1cnc(SCc2cnc(C)nc2N)nc1 | > 37.1 µg/mL
10 | CC1CCc2ccccc2N1C(N)=Nc1ccccc1.Cl (configuration not stated) | > 45.3 µg/mL
11 | CC(C)NC(=S)N1CCC(Cc2ccccc2)CC1 | 24.4 µg/mL (≈ 88.3 µM)
12 | CC1=C([N+](=O)[O-])C(c2ccc3c(c2)OCO3)N(C)C(=O)N1C (configuration not stated) | 36.4 µg/mL (≈ 119 µM)
13 | COc1cc(/C=C2/CC(C)OC2=O)c([N+](=O)[O-])cc1OC (configuration not stated) | > 44 µg/mL
14 | Cc1ccc(/C=N/NC(=O)CN2CCN(Cc3ccccc3Cl)CC2)o1 | > 56.2 µg/mL
15 | O=C(/C=C/c1cccc(C(F)(F)F)c1)N1CCN(c2ccccn2)CC1 | 4 µg/mL (≈ 11.1 µM)
16 | O=C(Cn1cc(C(=O)C2CC2)c2ccccc21)Nc1ccc(F)cc1 | 0.7 µg/mL (≈ 2.08 µM)
17 | COC(=O)[C@@H](N)CS.Cl | > 25.7 µg/mL
18 | Cc1csc(NC(=S)NC(=O)c2ccccc2)n1 | 1 µg/mL (≈ 3.61 µM)
19 | NC(=O)C1(C(N)=O)OC1c1ccc(Cl)cc1Cl (configuration not stated) | > 41.3 µg/mL
20 | O=C1c2ccccc2C(=O)N1CCOc1ccc(F)cc1 | 4 µg/mL (≈ 14 µM)
21 | CCCn1c(SCC(=O)NC)nc2sc3c(c2c1=O)CCC3 | 5.5 µg/mL (≈ 16.3 µM)
22 | CCOC(=O)[C@H](CCc1ccccc1)N[C@@H](C)C(=O)N1Cc2ccccc2C[C@H]1C(=O)O.Cl | > 71.2 µg/mL
23 | CCc1cccc(C)c1NC(=O)CSc1nnc(C)o1 | > 43.7 µg/mL
24 | O=C(c1ccc(Oc2cc(Cl)cc(Cl)c2)o1)N1CCCCC1 | 7.7 µg/mL (≈ 22.6 µM)

Row | Compound | solubility kinetic
25 | COc1ccc(C(=O)CCC(=O)Nc2cccc(Cl)c2)cc1 | 3.4 µg/mL (≈ 10.7 µM)
26 | Cc1cccc(C(=O)OCC(=O)NC(C)C2CC3CCC2C3)c1O (configuration not stated) | 4.1 µg/mL (≈ 12.4 µM)
27 | CCSC1=C(C#N)C2(CCCCC2)C2=C(CC(C)(C)CC2=O)N1 | 1 µg/mL (≈ 3.03 µM)
28 | CC(C)Cc1csc(NC(=O)c2ccc(Br)cc2)c1C(=O)O | 53.6 µg/mL (≈ 140 µM)
29 | CCC(C(=O)NCCc1ccc(S(N)(=O)=O)cc1)c1ccccc1 (configuration not stated) | > 52 µg/mL
30 | CCOC(=O)c1nccnc1C(=O)Nc1cccc(C(F)(F)F)c1 | 47.5 µg/mL (≈ 140 µM)
31 | COc1ccc(CC(=O)Nc2cccc3ccccc23)cc1OC | 7.1 µg/mL (≈ 22.1 µM)
32 | COc1cccc(C(=O)OCC(=O)c2[nH]c(C)c(C(C)=O)c2C)c1 | 2.1 µg/mL (≈ 6.38 µM)
33 | CCOCc1c(C(=O)NCC(c2ccco2)N2CCCC2)oc2ccccc12 (configuration not stated) | 56.2 µg/mL (≈ 147 µM)
34 | S=c1[nH]nc(Nc2ccccc2)s1 | > 31.4 µg/mL
35 | O=C(NCC1CCCCC1)c1ccc(Cl)nc1 | > 37.9 µg/mL
36 | Cc1cc(=O)cc(C)n1-c1ccccc1N | 31.1 µg/mL (≈ 145 µM)
37 | CCOc1ccc(NC(=O)CN2C(=O)C(C)SC(C)C2=O)cc1 (configuration not stated) | 34.8 µg/mL (≈ 103 µM)
38 | Cc1cc(C(=O)NCCC(C)C)c2ccccc2n1 | 31 µg/mL (≈ 121 µM)
39 | O=C(c1c[nH]c2ccccc12)C(Cl)c1ccccc1 (configuration not stated) | 2.1 µg/mL (≈ 7.79 µM)
40 | O=c1[nH]c(=S)[nH]c2c1CN(Cc1ccc(F)cc1)CC2 | 28.6 µg/mL (≈ 98.2 µM)
41 | Cc1ccccc1NC(=S)Nc1ccccc1 | 18.8 µg/mL (≈ 77.6 µM)
42 | Cc1nc2ccc([N+](=O)[O-])cc2c(=O)n1Cc1ccc(Cl)cc1 | 0.6 µg/mL (≈ 1.82 µM)
43 | COc1cc2c(cc1OC)/C(=C/C(=O)c1ccc(F)cc1)NCC2 | 25.7 µg/mL (≈ 78.5 µM)
44 | Cc1ccc(C(=O)NNC(=O)c2ccncc2)cc1[N+](=O)[O-] | > 45 µg/mL
45 | CC(C)(C)NC(=O)/C(=C\c1ccco1)NC(=O)c1ccco1 | > 45.3 µg/mL
46 | CC(C)NCc1nnc(-c2ccccc2Cl)o1 | > 37.8 µg/mL
47 | COC(=O)CSc1ncnc2c(C)csc12 | 29.9 µg/mL (≈ 118 µM)
